Measured values: patent US20220204456A1, “COMPOUND FOR TREATING AUTOIMMUNE SKIN DISEASES CAUSED BY INFLAMMATION, AND USE THEREOF” (GenEros Biopharma Ltd., priority 2019, published 2022)
Entries after “also recorded” stand apart in the source; their conditions may differ.

Tests used:
[1] = system: psoriasis model; assay: Clinical scoring (rash, peeling, thickening) in imiquimod-induced psoriasis model, Example 1; type: in vivo, BALB/c mice; conditions: for statistical significance analysis of rash scores / statistical significance analysis of skin thickening scores / statistical significance analysis of total clinical scores / statistical significance analysis of peeling scores: vs vehicle control group, t-test, Nib1 10 mg/kg oral, DEX cream 70 mg external
Description: (§1) Female BALB/c mice (purchased from Shanghai SLACK Laboratory Animal Co., Ltd, administered at 6 weeks of age) were randomly divided into groups after adapting to the environment. Except for the normal control group, the rest of the animals received imiquimod ointment (5%) externally to induce the establishment of a psoriasis model. Specifically, the mice were shaved off same area of the back hair and applied with 62.5 mg of imiquimod ointment daily for seven consecutive days. Animals received different treatment programs, weighed daily, orally or externally applied with drugs once, and recorded with disease progression score.
(§2) Both the vehicle control group and the Nib1 treatment group received oral gavage of the same volume of drugs, formulated with 30% PEG300, and the Nib1 group was given a dose of 10 mg/kg. Dexamethasone ointment was used as a positive treatment drug and received 70 mg smear treatment once a day. The disease progression score is evaluated on a scale of 0-4 based on three indicators, rash, peeling, and thickening (0: no symptoms; 1: mild symptoms; 2: moderate symptoms; 3: significant symptoms; 4: very significant symptoms). At the end of the experiment, the animals were sacrificed, and pathological section analysis was performed on the skin samples of the back lesions.
The clinical scoring of three indicators including skin rash, peeling and thickening were recorded and shown as statistical average value and ±standard error by day.

[2] = Animal body weight in psoriasis model, Example 2 (external application); type: in vivo, BALB/c mice; conditions: 70 mg external once a day for 7 days
Description: After adapting to the environment, female BALB/c mice were randomly divided into groups. Except for the normal control group, the rest received external treatment with imiquimod ointment (5%) to induce the establishment of a psoriasis model. Specifically, the mice were shaved off the same area (2×3 cm) of back hair and applied with 62.5 mg ointment daily for seven consecutive days. The animals received different treatments, weighed daily, received 70 mg smear treatment once, and recorded with disease progression score. The disease progression score is evaluated on a scale of 0-4 based on three indicators, rash, peeling, and thickening (0: no symptoms; 1: mild symptoms; 2: moderate symptoms; 3: significant symptoms; 4: very significant symptoms). At the end of the experiment, the animals were sacrificed, and pathological section analysis was performed on the skin samples of the back lesions.

[3] = Animal body weight in psoriasis model, Example 1; type: in vivo, BALB/c mice; conditions: for Statistical significance analysis of body weight: vs vehicle control group, t-test, DEX cream 70 mg external
Description: as §1, §2

[4] = J Neurol Neurosurg Psychiatry 1986;49:791-795; cited from earlier work
[5] = system: psoriasis model; assay: Pathological section analysis and scoring of back lesion skin, Example 1; type: in vivo, BALB/c mice; conditions: Nib1 10 mg/kg oral
Description: as §2
The pathological sections of animal skin were stained with eosin. Three samples were selected for each group.

[6] = Nib1 10 mg/kg oral once a day, vs model group

Row | Structure (SMILES) | statistical significance analysis of rash scores ([1]; day 1) | statistical significance analysis of skin thickening scores ([1]; day 1) | statistical significance analysis of total clinical scores ([1]; day 1) | statistical significance analysis of rash scores ([1]; day 2) | statistical significance analysis of total clinical scores ([1]; day 2) | statistical significance analysis of peeling scores ([1]; day 3) | statistical significance analysis of rash scores ([1]; day 3) | statistical significance analysis of skin thickening scores ([1]; day 3) | statistical significance analysis of total clinical scores ([1]; day 3) | statistical significance analysis of peeling scores ([1]; day 4) | statistical significance analysis of skin thickening scores ([1]; day 4) | statistical significance analysis of total clinical scores ([1]; day 4) | statistical significance analysis of peeling scores ([1]; day 5) | statistical significance analysis of skin thickening scores ([1]; day 5) | statistical significance analysis of total clinical scores ([1]; day 5) | statistical significance analysis of peeling scores ([1]; day 6) | statistical significance analysis of skin thickening scores ([1]; day 6) | statistical significance analysis of total clinical scores ([1]; day 6) | other results
1 | C[C@@H]1C[C@H]2[C@@H]3CCC4=CC(=O)C=C[C@]4(C)[C@@]3(F)[C@@H](O)C[C@]2(C)[C@@]1(O)C(=O)CO [DEX, Dexamethasone] | ** (** p < 0.01) | **** (**** p < 0.0001) | **** (**** p < 0.0001) | **** (**** p < 0.0001) | **** (**** p < 0.0001) | **** (**** p < 0.0001) | **** (**** p < 0.0001) | **** (**** p < 0.0001) | **** (**** p < 0.0001) | **** (**** p < 0.0001) | **** (**** p < 0.0001) | **** (**** p < 0.0001) | **** (**** p < 0.0001) | **** (**** p < 0.0001) | **** (**** p < 0.0001) | **** (**** p < 0.0001) | **** (**** p < 0.0001) | **** (**** p < 0.0001) | statistical significance analysis of skin thickening scores ([1]; day 2): **** (**** p < 0.0001); statistical significance analysis of rash scores ([1]; day 4): **** (**** p < 0.0001); statistical significance analysis of rash scores ([1]; day 5): **** (**** p < 0.0001); statistical significance analysis of rash scores ([1]; day 6): **** (**** p < 0.0001); statistical significance analysis of peeling scores ([1]; day 7): *** (*** p < 0.001); statistical significance analysis of rash scores ([1]; day 7): **** (**** p < 0.0001); statistical significance analysis of skin thickening scores ([1]; day 7): **** (**** p < 0.0001); statistical significance analysis of total clinical scores ([1]; day 7): **** (**** p < 0.0001); weight loss [2]: more than 25%; body weights of the animals ([3]; Example 1, 7 days, Nib1 10 mg/kg oral, dexamethasone ointment 70 mg topical, once a day): significantly reduced; Statistical significance analysis of body weight ([3]; day 1, Nib1 10 mg/kg oral): * (* p < 0.05); Statistical significance analysis of body weight ([3]; day 4, Nib1 10 mg/kg oral): * (* p < 0.05); Statistical significance analysis of body weight ([3]; day 5, Nib1 10 mg/kg oral): ** (** p < 0.01); Statistical significance analysis of body weight ([3]; day 6, Nib1 10 mg/kg oral): **** (**** p < 0.0001); Statistical significance analysis of body weight ([3]; day 7, Nib1 10 mg/kg oral): **** (**** p < 0.0001)
2 | O=c1[nH]c2ccccc2n1C1CCN(CCCC(c2ccc(F)cc2)c2ccc(F)cc2)CC1 [Nib1, Pimozide] | **** (**** p < 0.0001) | ** (** p < 0.01) | **** (**** p < 0.0001) | * (* p < 0.05) | ** (** p < 0.01) | *** (*** p < 0.001) | ** (** p < 0.01) | * (* p < 0.05) | **** (**** p < 0.0001) | *** (*** p < 0.001) | *** (*** p < 0.001) | **** (**** p < 0.0001) | **** (**** p < 0.0001) | *** (*** p < 0.001) | *** (*** p < 0.001) | ** (** p < 0.01) | ** (** p < 0.01) | ** (** p < 0.01) | remission by area under the clinical total score curve (AUC) ([1]; Nib1 10 mg/kg oral once a day for 7 days, compared with the disease model group): 32.2%; total score of the three clinical indicators ([1]; Nib1 10 mg/kg oral once a day, vs disease model group, 10 mg/kg): significantly lower clinical symptoms than the disease model group; also recorded: significantly reduce the clinical symptoms of psoriasis; peeling clinical score [1, 6]: significantly reduce the peeling phenomenon; skin thickening clinical score [1, 6]: significantly reduced on the 4th, 5th, and 6th days; rash clinical score ([1]; Nib1 10 mg/kg oral once a day, vs model group, significantly different in the first three days): slightly reduced rash; systemic risks on long-term use [4]: has not shown systemic risks; toxic and side effect (judged from body weight) ([3]; mouse, in vivo, po, 10 mg/kg): significantly less than that of dexamethasone; pathological section findings (epidermal hyperplasia, immune cell infiltration) ([5]; stained skin sections, 100x): improve epidermal hyperplasia and reduce immune cell infiltration; remission effect by pathological section score ([5]; scoring system of Table 2, p<0.01 vs vehicle control, one-way ANOVA): 32.5%
